Experimental data reported in US9381195B2, “Derivatives of azaindazole or diazaindazole type for treating pain” (PIERRE FABRE MEDICAMENT, priority 2012, dated 2016).

Key:
TrkA = target: T1, TrkA (Homo sapiens, UniProt P04629); assay: Test for measuring inhibition of TrkA kinase (Millipore or Kinome Scan, manufacturer's protocols); format: biochemical; details: read-out: Enzymatic inhibition at 10 nM (%) TrkA
T1 construct: purchased Millipore or Kinome Scan (DiscoverX)
Description: (§1) Test for Measuring Inhibition of TrkA, TrkB or TrkC Kinase
(§2) These kinases are produced by Millipore or Kinome Scan (DiscoverX) and are screened according to the manufacturer's protocols.

TrkB = target: T2, TrkB (Homo sapiens, UniProt Q16620); assay: Test for measuring inhibition of TrkB kinase (Millipore or Kinome Scan, manufacturer's protocols); format: biochemical; details: read-out: Enzymatic inhibition at 10 nM (%) TrkB
T2 construct: purchased Millipore or Kinome Scan (DiscoverX)
T2 sequence (Q16620 32-822): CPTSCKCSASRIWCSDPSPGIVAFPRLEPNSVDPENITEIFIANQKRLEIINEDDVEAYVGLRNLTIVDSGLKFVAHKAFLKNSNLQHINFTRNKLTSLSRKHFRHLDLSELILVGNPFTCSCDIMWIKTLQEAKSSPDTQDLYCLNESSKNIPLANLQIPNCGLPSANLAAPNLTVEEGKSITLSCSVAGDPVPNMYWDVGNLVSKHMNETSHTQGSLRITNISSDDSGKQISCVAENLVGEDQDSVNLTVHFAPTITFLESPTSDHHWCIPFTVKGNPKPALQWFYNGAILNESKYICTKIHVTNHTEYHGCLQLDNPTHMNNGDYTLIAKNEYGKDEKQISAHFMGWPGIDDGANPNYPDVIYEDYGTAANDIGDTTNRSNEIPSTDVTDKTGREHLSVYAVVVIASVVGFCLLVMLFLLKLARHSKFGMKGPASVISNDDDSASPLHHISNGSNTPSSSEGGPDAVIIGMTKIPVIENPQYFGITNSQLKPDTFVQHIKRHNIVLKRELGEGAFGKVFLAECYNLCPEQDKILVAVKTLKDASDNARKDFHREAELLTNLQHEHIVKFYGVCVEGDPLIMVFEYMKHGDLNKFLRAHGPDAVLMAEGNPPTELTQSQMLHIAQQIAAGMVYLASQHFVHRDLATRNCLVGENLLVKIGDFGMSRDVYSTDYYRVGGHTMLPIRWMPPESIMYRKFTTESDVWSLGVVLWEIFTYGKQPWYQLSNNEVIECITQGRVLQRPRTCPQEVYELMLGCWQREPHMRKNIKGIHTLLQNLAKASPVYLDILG
Description: as §1, §2

TrkC = target: T3, TrkC (Homo sapiens, UniProt Q16288); assay: Test for measuring inhibition of TrkC kinase (Millipore or Kinome Scan, manufacturer's protocols); format: biochemical; details: read-out: Enzymatic inhibition at 10 nM (%) TrkC
T3 construct: purchased Millipore or Kinome Scan (DiscoverX)
T3 sequence (Q16288 32-839): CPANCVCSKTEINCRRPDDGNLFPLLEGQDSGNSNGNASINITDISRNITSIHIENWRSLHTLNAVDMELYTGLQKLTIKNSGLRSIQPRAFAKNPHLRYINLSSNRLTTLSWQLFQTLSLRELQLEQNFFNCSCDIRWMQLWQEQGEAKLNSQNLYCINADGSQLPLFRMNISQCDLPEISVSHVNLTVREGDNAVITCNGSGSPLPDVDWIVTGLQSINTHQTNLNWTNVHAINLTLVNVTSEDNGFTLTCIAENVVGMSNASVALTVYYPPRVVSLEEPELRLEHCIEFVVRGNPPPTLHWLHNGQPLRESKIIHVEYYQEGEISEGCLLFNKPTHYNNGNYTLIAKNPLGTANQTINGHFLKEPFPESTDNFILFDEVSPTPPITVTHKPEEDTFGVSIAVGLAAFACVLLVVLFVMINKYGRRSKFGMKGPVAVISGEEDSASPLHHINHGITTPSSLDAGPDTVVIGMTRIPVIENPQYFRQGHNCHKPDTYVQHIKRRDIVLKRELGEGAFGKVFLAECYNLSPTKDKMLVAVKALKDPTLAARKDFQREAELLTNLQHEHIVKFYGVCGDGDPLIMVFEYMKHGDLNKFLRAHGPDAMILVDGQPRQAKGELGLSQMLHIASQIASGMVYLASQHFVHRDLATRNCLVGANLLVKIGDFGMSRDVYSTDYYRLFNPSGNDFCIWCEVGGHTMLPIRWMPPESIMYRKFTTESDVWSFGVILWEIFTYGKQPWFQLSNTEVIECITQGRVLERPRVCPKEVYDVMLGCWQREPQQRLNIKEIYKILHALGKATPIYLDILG
Description: as §1, §2

TrkA (or NTRK1) = target: T4, TrkA (or NTRK1) (Homo sapiens, UniProt P04629); assay: In vitro kinase glo plus-based kinase assay, TrkA; format: biochemical; details: comparative experiments; 30 μM ATP
T4 construct: using the soluble intracellular segment of theses receptors, containing the kinase activity; purchased Millipore
T4 sequence (P04629 440-796 limits assumed): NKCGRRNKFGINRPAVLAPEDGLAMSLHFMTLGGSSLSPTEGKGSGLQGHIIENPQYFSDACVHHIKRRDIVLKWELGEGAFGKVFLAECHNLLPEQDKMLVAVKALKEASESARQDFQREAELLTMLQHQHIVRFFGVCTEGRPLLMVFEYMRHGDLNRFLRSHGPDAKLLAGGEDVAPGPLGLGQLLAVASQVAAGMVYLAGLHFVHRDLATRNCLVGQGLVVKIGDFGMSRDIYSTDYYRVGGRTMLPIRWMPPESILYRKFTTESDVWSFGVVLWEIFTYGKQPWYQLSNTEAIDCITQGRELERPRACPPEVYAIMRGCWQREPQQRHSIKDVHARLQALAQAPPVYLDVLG
Method: (§3) Plates were removed from incubator, and 50 μl of kinase-glo plus was added to each well, followed by a 10 minute incubation at room temperature. The luciferase-induced luminescence, which is proportional to the ATP remaining in the well, was measured on a luminometer. Controls on each plates included wells with the kinase alone (maximal ATP consumption, or 0% inhibition), wells without the kinase (maximal ATP signal or 100% inhibition), and wells with 20 μM staurosporine (positive control of inhibition).

TrkB (or NTRK2) = target: T5, TrkB (or NTRK2) (Homo sapiens, UniProt Q16620); assay: In vitro kinase glo plus-based kinase assay, TrkB; format: biochemical; details: comparative experiments; 40 μM ATP
T5 construct: using the soluble intracellular segment of theses receptors, containing the kinase activity; purchased Invitrogen
T5 sequence (Q16620 455-822 limits assumed): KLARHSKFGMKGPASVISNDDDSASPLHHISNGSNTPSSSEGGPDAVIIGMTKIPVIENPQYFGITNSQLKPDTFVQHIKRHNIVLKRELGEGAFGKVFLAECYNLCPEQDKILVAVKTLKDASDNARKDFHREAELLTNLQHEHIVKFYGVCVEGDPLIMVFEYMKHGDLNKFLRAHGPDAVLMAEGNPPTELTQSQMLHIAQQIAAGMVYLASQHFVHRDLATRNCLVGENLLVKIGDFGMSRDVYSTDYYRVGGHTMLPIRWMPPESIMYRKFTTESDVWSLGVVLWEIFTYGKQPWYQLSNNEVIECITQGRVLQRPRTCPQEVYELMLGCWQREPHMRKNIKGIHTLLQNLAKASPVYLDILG
Method: as §3, with “An in vitro kinase glo plus-based kinase assay (Promega) was developed in a 96 wells assay plate format to assess the inhibiting properties of compounds on tropomyosin related kinases (Trk) receptors, using the soluble intracellular segment of theses receptors, containing the kinase activity (TrkA (or NTRK1; 400 ng/well; […] Invitrogen)). […] Plates” for “Plates”, “inhibition). […] N=42; […]” for “inhibition).”

NGF-induced hyperalgesia = assay: In vivo analgesic activity against NGF-induced hyperalgesia (hot plate); details: mouse; for inhibition of NGF-induced hyperalgesia (latency time): given 30 min before NGF, hot plate four hours after NGF
Method: In Vivo Analgesic Activity Against NGF-Induced Hyperalgesia Compounds of general formula (I), and particularly compound 30 have been tested in vivo in the mouse receiving an intraplantar injection of NGF. This treatment elicits thermal hyperalgesia (Schuligoi et al., 1998, Neuroscience Letters 252:147-149). Briefly, male mice received a 10 μl subcutaneous injection of NGFβ (1 μg; SIGMA) into the plantar surface of the right hind paw. Following the injection, mice were returned to their cages. Four hours after NGF injection, mice were placed on the centre of the hot plate analgesimeter (BIO-HC2.00, Bioseb, France), and the latency time to the first brisk lift or lick of a hind paw or jumping will be recorded. A maximum cut-off time of 60 sec is used to prevent tissue damage. Results are given as the mean±s.e.m. of the latency time. Test compounds were given 30 min before NGF injection.

[1] = tested on: formalin test (paw licking); assay: In vivo analgesic activity in the formalin test; design: species or system rat; details: rats, second phase of the formalin test, vs. vehicle-treated animals, P<0.05
Description: In Vivo Analgesic Activity in the Formalin Test in Rats The method was adapted from Wheeler-Aceto et al. (Pain, 1990, 40:229-38) and Bardin et al. (2003, Pharmacology 67: 182-194). In the second phase of the test, Compound 30 inhibited paw licking by 44% vs. vehicle-treated animals (P<0.05 by ANOVA).

bone cancer pain = assay: In vivo analgesic activity against chronic pain in a model of bone cancer pain (NCTC 2472 fibrosarcoma cells in tibia); design: species or system mouse; details: C3H/HeNCrl mice
Method: In Vivo Analgesic Activity Against Chronic Pain in a Model of Bone Cancer Pain
Bone cancer produces one of the most painful conditions that affect humans and animals. […] Several models of murine osteosarcoma-induced pain have been developed (Pacharinsak and Beitz, Animal models of cancer pain. Comp Med. 2008 June; 58:220-33.).
We induced bone cancer pain by implanting 10 μl of PBS containing 2×10^5 NCTC 2472 osteolytic fibrosarcoma cells into the tibia of 5-6 week-old C3H/HeNCrl mice under isoflurane anesthesia. The presence of these cells induces osteolytic lesions in bone due to both an increase in the number of osteoclasts and to their activation, which leads to the destruction of bone tissue and the invasion of the adjacent soft tissue and pain related behaviours. Pain-related behaviours were evaluated both prior to and at 3, 7, 10, 14 and 17 days following tumor cell injection. The following behaviors were evaluated: • Limb use during spontaneous ambulation on a scale of 0-4 where 0=normal use and 4=no use of the injected hind paw; • Light touch-evoked pain. Light touch induced flinching were measured after the 1 min period of non noxious stimulation of the tumor injected paw with a small paint brush. The numbers of flinches were recorded over 5 min. […]

[2] = tested on: inflammatory pain induced by Complete Freund Adjuvant (CFA); assay: In vivo analgesic activity against acute and chronic inflammatory pain induced by Complete Freund Adjuvant (CFA); details: rat
Description: In Vivo Analgesic Activity Against Acute and Chronic Inflammatory Pain Induced by Complete Freund Adjuvant (CFA)
Male Sprague-Dawley rats [Crl:OFA(SD) Charles River Lyon, France] weighing 160-180 g upon arrival were used. Rats were first daily habituated to handling and to the test apparatus used for the von-Frey and hot-plate models one week before the induction of inflammation. On the following Monday, they were subjected to nociceptive tests for determination of basal scores. Then, rats will be given a 100 μl subcutaneous injection of CFA (1 mg/1 ml; Sigma) into the plantar surface of the right hind paw (day 0: D0). Saline was injected by the same route in the placebo group.
Then each rat was placed on an elevated plastic mesh in a clear plastic cage and the number of spontaneous flinches (measurement of spontaneous pain) was recorded during 10 min. Mechanical allodynia was assessed using the von Frey Hair test. Each rat was placed on an elevated plastic mesh in a clear plastic cage and allowed to adapt to the testing environment for at least 5 min. The von Frey Hairs (Semmes-Weinstein monofilaments, Stoelting Ill., USA; 0.6, 1.4, 2, 4, 6, 8, 10, and 15 g) was applied to the plantar surface of the injected paw from below the mesh floor for […] in the ascending order. The threshold was determined as the lowest force that evoked a withdrawal response. The test was repeated three times with an interval of 5 min between each test. The paw withdrawal score to the tactile stimulus was determined as the average of the 3 measurements. Animals received intraperitoneal or oral injections of test compounds. […] Compound completely or nearly completely reversed spontaneous pain from 0.16 mg/kg and mechanical allodynia from 2.5 mg/kg.

T1 sequence (P04629 33-796): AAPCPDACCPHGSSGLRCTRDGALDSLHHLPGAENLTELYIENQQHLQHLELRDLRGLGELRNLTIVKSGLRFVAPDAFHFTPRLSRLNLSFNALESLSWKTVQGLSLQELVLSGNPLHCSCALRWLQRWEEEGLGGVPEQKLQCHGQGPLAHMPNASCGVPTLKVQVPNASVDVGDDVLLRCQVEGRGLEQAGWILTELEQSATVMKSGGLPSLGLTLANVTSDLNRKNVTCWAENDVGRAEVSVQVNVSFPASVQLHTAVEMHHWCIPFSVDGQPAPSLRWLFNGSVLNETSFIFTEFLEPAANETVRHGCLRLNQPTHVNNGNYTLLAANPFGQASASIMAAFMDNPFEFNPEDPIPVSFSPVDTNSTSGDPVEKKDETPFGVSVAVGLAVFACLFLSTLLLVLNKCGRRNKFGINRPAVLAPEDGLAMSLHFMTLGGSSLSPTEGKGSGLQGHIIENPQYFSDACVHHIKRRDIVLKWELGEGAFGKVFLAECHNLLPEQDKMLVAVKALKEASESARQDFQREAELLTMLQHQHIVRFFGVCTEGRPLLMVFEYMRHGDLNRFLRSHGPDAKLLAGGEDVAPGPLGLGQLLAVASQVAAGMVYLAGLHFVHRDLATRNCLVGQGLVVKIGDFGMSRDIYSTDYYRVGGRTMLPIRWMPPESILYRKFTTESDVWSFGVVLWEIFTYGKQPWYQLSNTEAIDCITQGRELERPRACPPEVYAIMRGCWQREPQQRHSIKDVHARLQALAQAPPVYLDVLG

inhibition at 0.01 µM (TrkA)	inhibition at 0.01 µM (TrkB)	inhibition at 0.01 µM (TrkC)	IC50 (TrkA (or NTRK1))	IC50 (TrkB (or NTRK2))	Compound	also measured
97.8%	93%	96.8%			CN1CCN(c2ccc(C(=O)Nc3n[nH]c4ncc(S(=O)(=O)c5cc(F)cc(F)c5)cc34)c(NC3CCOCC3)c2)CC1 [Compound 27-1, N-(5-(3,5-difluorophenylsulfonyl)-1H-pyrazolo[3,4-b]pyridin-3-yl)-4-(4-methylpiperazin-1-yl)-2-(tetrahydro-2H-pyran-4-ylamino)benzamide]	
99%	96.6%	97.3%			CN1CCN(c2ccc(C(=O)Nc3n[nH]c4ncc(S(=O)(=O)Nc5cc(F)cc(F)c5)cc34)c(NC3CCOCC3)c2)CC1 [Compound 30-8, N-(5-(N-(3,5-difluorophenyl)sulfamoyl)-1H-pyrazolo[3,4-b]pyridin-3-yl)-4-(4-methylpiperazin-1-yl)-2-(tetrahydro-2H-pyran-4-ylamino)benzamide]	
97.4%	88%	93.4%			CN1CCN(c2ccc(C(=O)Nc3n[nH]c4nc(N)c(Sc5cc(F)cc(F)c5)cc34)c(NC3CCOCC3)c2)CC1 [Compound 14-11, N-(6-amino-5-(3,5-difluorophenylthio)-1H-pyrazolo[3,4-b]pyridin-3-yl)-4-(4-methylpiperazin-1-yl)-2-(tetrahydro-2H-pyran-4-ylamino)benzamide]	
			22 µM	35 µM	Nc1n[nH]c2ncc(Sc3cc(F)cc(F)c3)cc12 [D]	
93.8%	84%	64%	0.045 µM	0.031 µM	CN1CCN(c2ccc(C(=O)Nc3n[nH]c4ncc(Sc5cc(F)cc(F)c5)cc34)c(NC3CCOCC3)c2)CC1 [Compound 30, N-(5-(3,5-difluorophenylthio)-1-H-pyrazolo[3,4-b]pyridine-3-yl)-4-(4-methylpiperazine-1-yl)-2-(tetrahydro-2H-pyran-4-ylamino)benzamide]	doses at which complete or nearly complete reversion of NGF-induced hyperalgesia occurred (NGF-induced hyperalgesia; intraperitoneal or oral route, P<0.05 vs NGF alone): ≤ 10 mg/kg; inhibition of NGF-induced hyperalgesia (latency time) (NGF-induced hyperalgesia; intraperitoneal route, FIG. 1A): dose-dependently inhibited; inhibition of NGF-induced hyperalgesia (latency time) (NGF-induced hyperalgesia; oral route, FIG. 1B): dose-dependently inhibited; inhibition of paw licking [1]: 44%; light touch-evoked flinching (bone cancer pain; 2.5 mg/kg i.p. chronically from day 7, effect from day 8, FIG. 3B): significantly reduced; limb use score (bone cancer pain; 2.5 mg/kg i.p. chronically from day 7, effect from day 10, FIG. 3A): significantly reduced; dose from which spontaneous pain was completely or nearly completely reversed ([2]; flinches): ≥ 0.16 mg/kg; inhibition of spontaneous flinches (acute inflammatory pain) ([2]; intraperitoneal injection, FIG. 2A): dose-dependently inhibited; inhibition of mechanical allodynia (von Frey) ([2]; oral administration, FIG. 2B): dose-dependently inhibited; dose from which mechanical allodynia was completely or nearly completely reversed ([2]; von Frey): ≥ 2.5 mg/kg
55%	98%				CN1CCN(c2ccc(C(=O)Nc3n[nH]c4ncc(Cc5cc(F)cc(F)c5)cc34)c(NC3CCOCC3)c2)CC1 [Compound 30-9, N-(5-(3,5-difluorobenzyl)-1H-pyrazolo[3,4-b]pyridin-3-yl)-4-(4-methylpiperazin-1-yl)-2-(tetrahydro-2H-pyran-4-ylamino)benzamide]	
			2.1 µM	5.8 µM	CN1CCN(c2ccc(C(=O)Nc3n[nH]c4nc(Nc5ccc(F)cc5F)ccc34)c(NC3CCOCC3)c2)CC1 [C]	
			~10 µM	> 100 µM	CN1CCN(c2ccc(C(=O)Nc3n[nH]c4nc(Nc5cc(F)cc(F)c5)ncc34)c(NC3CCOCC3)c2)CC1 [A]	
			3.3 µM	18 µM	CN1CCN(c2ccc(C(=O)Nc3n[nH]c4nc(Nc5ccc(F)cc5F)ncc34)c(NC3CCOCC3)c2)CC1 [B]	
